# According to article PMC6009965, “α-Glucosidase inhibition by flavonoids: an in vitro and in silico structure–activity relationship study” (Journal of Enzyme Inhibition and Medicinal Chemistry, 2017):
# Where two headings read alike, the source gives them in different places.
# Columns and labels:
# yeast α-glucosidase = target: T1, yeast α-glucosidase (Saccharomyces cerevisiae, UniProt P53341); experiment: Inhibitory kinetic analysis (Michaelis–Menten, Lineweaver–Burk plots); type: biochemical; conditions: for Type of inhibition: pNPG 300, 600 and 1200 μM
# T1 construct: purchased Sigma-Aldrich Co. LLC (St. Louis, MO)
# T1 sequence (P53341 whole entry): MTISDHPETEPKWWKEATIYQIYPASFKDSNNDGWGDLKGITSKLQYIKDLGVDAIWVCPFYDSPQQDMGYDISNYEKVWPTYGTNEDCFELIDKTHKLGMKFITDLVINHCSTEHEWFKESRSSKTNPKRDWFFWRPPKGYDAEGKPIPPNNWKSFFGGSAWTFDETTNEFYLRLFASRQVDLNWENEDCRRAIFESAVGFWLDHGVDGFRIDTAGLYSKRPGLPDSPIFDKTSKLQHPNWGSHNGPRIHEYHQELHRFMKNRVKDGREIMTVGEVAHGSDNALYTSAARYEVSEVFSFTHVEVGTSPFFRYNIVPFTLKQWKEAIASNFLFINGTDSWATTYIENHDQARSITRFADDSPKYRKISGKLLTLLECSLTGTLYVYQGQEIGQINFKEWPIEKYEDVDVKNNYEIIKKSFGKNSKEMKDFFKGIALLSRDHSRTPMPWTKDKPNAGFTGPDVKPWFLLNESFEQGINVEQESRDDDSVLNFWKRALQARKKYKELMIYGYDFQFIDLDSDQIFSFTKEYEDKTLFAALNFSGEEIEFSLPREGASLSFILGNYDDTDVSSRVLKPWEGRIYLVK
# Description: Briefly, the enzyme (0.05 U/mL), dissolved in 100 mM phosphate buffer (pH 6.8), was pre-incubated at 37 °C with the above mentioned flavonoids in a 96-well plate, for 5 min. In sequence, pNPG was added (300, 600 and 1200 μM) and incubated in the reaction mixture at 37 °C for 30 min.
# The study of the inhibition type (competitive, uncompetitive, non-competitive or mixed) of the tested flavonoids was performed using the nonlinear regression Michaelis–Menten enzyme kinetics and the corresponding Lineweaver–Burk double reciprocal plots for each concentration of the inhibitor and substrate. The Ki values were calculated with GraphPad Software 6.0 by plotting the reciprocal of maximum velocity (1/V max) (y axis) against the flavonoid concentrations (x axis) (Table 2)[38–40].
# The type of inhibition parameters were all calculated with GraphPad Software 6.0. The obtained results represent at least three independent experiments.
# α-glucosidase = conditions: cited from earlier work; for Activity against α-glucosidase catalytic activity: ref Gao et al. 27
# [1] = target: T2, α-glucosidase from Saccharomyces cerevisiae (Saccharomyces cerevisiae, UniProt P53341); experiment: biochemical
# T2 construct: purchased Sigma-Aldrich Co. LLC (St. Louis, MO)
# T2 sequence (P53341 whole entry): as above
# Description: Compounds A1, A2, A3, A4, A5, A6, B1, B2, B3, B4, C1, C2, C3, C4, C5, C6, C8, C9, D1 (chrysin), D2 (galangin) and D5 were obtained from Indofine Chemical Company, Inc. (Hillsborough, NJ). The flavonoids C7, C10, C11, C12, C13, D10, D11, D12, D13, D14 and D17 were synthesised as previously described. For the enzymatic assays, flavonoids were dissolved in DMSO (the final concentration of DMSO in the reactional mixture was 4.76%).
# The α-glucosidase activity was measured using a method of Tadera et al.[31] slightly modified. The assay was carried out by monitoring the α-glucosidase-mediated transformation of the substrate pNPG into α-D-glucose and p-nitrophenol, at 405 nm. Briefly, in a 96-well plate, the enzyme (0.05 U/mL), dissolved in 100 mM phosphate buffer (pH 6.8), was pre-incubated at 37 °C for 5 min with the flavonoids (0–200 μM). In sequence, pNPG was added (600 μM) and incubated in the reaction mixture at 37 °C for 30 min. The enzymatic reaction was monitored spectrophotometrically, in a microplate reader (Synergy HT, BIO-TEK), by measuring the absorbance at 405 nm. The obtained values correspond to the slope measured between 5 and 20 min. […] The obtained results represent at least three independent experiments.
# [2] = read-out: Inhibitory activity at the highest tested concentration
# [3] = enzyme 0.05 U/mL, pNPG 600 μM, pH 6.8, 37 °C, mean ± SEM, read-out: IC50
# [4] = mean ± SEM, from 1/Vmax vs flavonoid concentration, read-out: Ki
structure (smiles),measurement,setting,value
"C[C@H]1O[C@H](O[C@H]2[C@H](O)[C@@H](O)[C@@H](O[C@H]3[C@H](O)[C@@H](O)C(O)O[C@@H]3CO)O[C@@H]2CO)[C@H](O)[C@@H](O)[C@@H]1N[C@H]1C=C(CO)[C@@H](O)[C@H](O)[C@H]1O (stereo partly drawn) [Acarbose, reference compound]",Type of inhibition,yeast α-glucosidase,Competitive
same,Type of inhibition,"α-glucosidase; ref Kim et al. 68, Lopez et al. 69",competitive
same,Type of inhibition,α-glucosidase; ref Son et al. 70,mixed type of inhibition
"O=c1cc(-c2ccccc2)oc2ccccc12 [Compound A1, Flavone]",Inhibitory activity against α-glucosidase (in words),[1],not able to inhibit α-glucosidase
same,inhibition at 200 µM,[1]; [2],< 20%
O=c1cc(-c2cccc(O)c2)oc2ccccc12 [Compound A2],Inhibitory activity against α-glucosidase (in words),[1],low or no inhibitory activity
same,inhibition at 200 µM,[1]; [2],< 20%
O=c1cc(-c2ccc(O)cc2)oc2ccccc12 [Compound A3],Inhibitory activity against α-glucosidase (in words),[1],low or no inhibitory activity
same,inhibition at 200 µM,[1]; [2],< 20%
O=c1cc(-c2ccc(O)c(O)c2)oc2ccccc12 [Compound A4],Inhibitory activity against α-glucosidase (in words),[1],low or no inhibitory activity
same,inhibition at 200 µM,[1]; [2],32 ± 4%
O=c1c(O)c(-c2ccc(O)c(O)c2)oc2ccccc12 [Compound A5],IC50,[1]; [3],54 ± 3 µM
same,Ki,yeast α-glucosidase,41 ± 7 µM
same,Type of inhibition,yeast α-glucosidase,Mixed
COc1ccc(-c2oc3ccccc3c(=O)c2O)cc1OC [Compound A6],IC50,[1]; [3],> 100 µM
same,inhibition at 100 µM,[1]; [2],< 20%
O=c1cc(-c2ccccc2)oc2cccc(O)c12 [Compound B1],inhibition at 200 µM,[1]; [2],< 20%
same,Activity against α-glucosidase catalytic activity,α-glucosidase,no activity
O=c1cc(-c2cccc(O)c2)oc2cccc(O)c12 [Compound B2],inhibition at 200 µM,[1]; [2],31 ± 4%
O=c1cc(-c2ccc(O)cc2)oc2cccc(O)c12 [Compound B3],IC50,[1]; [3],66 ± 2 µM
same,Ki,yeast α-glucosidase,127 ± 9 µM
same,Type of inhibition,yeast α-glucosidase,Mixed
O=c1cc(-c2ccc(O)c(O)c2)oc2cccc(O)c12 [Compound B4],IC50,[1],66 ± 7 µM
O=c1cc(-c2ccccc2)oc2cc(O)ccc12 [Compound C1],IC50,[1],> 200 µM
same,inhibition at 200 µM,[1]; [2],< 20%
same,Activity against α-glucosidase catalytic activity,α-glucosidase,no activity
O=c1cc(-c2cccc(O)c2)oc2cc(O)ccc12 [Compound C2],IC50,[1]; [3],53 ± 4 µM
O=c1cc(-c2ccc(O)cc2)oc2cc(O)ccc12 [Compound C3],IC50,[1]; [3],~200 µM
O=c1c(O)c(-c2cccc(O)c2)oc2cc(O)ccc12 [Compound C4],IC50,[1]; [3],42 ± 4 µM
O=c1c(O)c(-c2ccc(O)cc2)oc2cc(O)ccc12 [Compound C5],IC50,[1]; [3],96 ± 10 µM
O=c1cc(-c2ccc(O)c(O)c2)oc2cc(O)ccc12 [Compound C6],IC50,[1]; [3],95 ± 7 µM
O=c1c(O)c(-c2ccc(O)c(O)c2)oc2c(O)c(O)ccc12 [Compound C7],IC50,[1]; [3],7.6 ± 0.4 µM
same,Ki,yeast α-glucosidase,6.5 ± 0.2 µM
same,Type of inhibition,yeast α-glucosidase,Competitive
COc1cccc(-c2oc3cc(OC)ccc3c(=O)c2O)c1 [Compound C8],inhibition at 100 µM,[1]; [2],22 ± 2%
COc1ccc(-c2oc3cc(OC)ccc3c(=O)c2O)cc1 [Compound C9],inhibition at 200 µM,[1]; [2],< 20%
COc1ccc2c(=O)c(O)c(-c3ccc(O)c(O)c3)oc2c1OC [Compound C10],IC50,[1],86 ± 6 µM
COc1ccc(-c2oc3c(O)c(O)ccc3c(=O)c2O)cc1OC [Compound C11],inhibition at 200 µM,[1]; [2],31 ± 3%
COc1ccc2c(=O)c(O)c(-c3ccc(OCc4ccccc4)c(OCc4ccccc4)c3)oc2c1OC [Compound C12],inhibition at 200 µM,[1]; [2],< 20%
COc1ccc(-c2oc3c(OCc4ccccc4)c(OCc4ccccc4)ccc3c(=O)c2O)cc1OC [Compound C13],inhibition at 200 µM,[1]; [2],32 ± 3%
"O=c1cc(-c2ccccc2)oc2cc(O)cc(O)c12 [Compound D1, Chrysin]",Inhibitory activity against α-glucosidase (in words),[1],no inhibitory effect
same,inhibition at 50 µM,[1]; [2],< 20%
"O=c1c(O)c(-c2ccccc2)oc2cc(O)cc(O)c12 [Compound D2, Galangin]",inhibition at 200 µM,[1]; [2],21 ± 3%
"O=c1cc(-c2ccccc2)oc2cc(O)c(O)c(O)c12 [Compound D3, Baicalein]",IC50,[1]; [3],44 ± 3 µM
O=c1cc(-c2cccc(O)c2)oc2cc(O)cc(O)c12 [Compound D4],IC50,[1],89 ± 3 µM
"O=c1cc(-c2ccc(O)cc2)oc2cc(O)cc(O)c12 [Compound D5, Apigenin]",IC50,[1],82 ± 6 µM
"O=c1cc(-c2ccc(O)c(O)c2)oc2cc(O)cc(O)c12 [Compound D7, Luteolin]",IC50,[1]; [3],46 ± 6 µM
"O=c1c(O)c(-c2ccc(O)c(O)c2)oc2cc(O)cc(O)c12 [Compound D8, Quercetin]",Type of inhibition,yeast α-glucosidase,Competitive
same,Type of inhibition,α-glucosidase,mixed type inhibitor
"O=c1c(O)c(-c2ccc(O)cc2O)oc2cc(O)cc(O)c12 [Compound D9, Morin]",IC50,[1],32 ± 2 µM
O=c1c(Cl)c(-c2ccc(O)c(O)c2)oc2cc(O)cc(O)c12 [Compound D10],IC50,[1],21 ± 2 µM
same,Ki,yeast α-glucosidase; [4],51 ± 6 µM
same,Type of inhibition,yeast α-glucosidase,Non-competitive
O=c1cc(-c2ccc(O)c(O)c2)oc2cc(O)c(Cl)c(O)c12 [Compound D11],IC50,[1]; [3],~200 µM
O=c1cc(-c2ccc(O)c(O)c2)oc2c(Cl)c(O)cc(O)c12 [Compound D12],IC50,[1],55 ± 2 µM
O=c1c(Cl)c(-c2ccc(O)c(O)c2)oc2c(Cl)c(O)cc(O)c12 [Compound D13],IC50,[1],43 ± 3 µM
O=c1cc(-c2ccc(O)c(O)c2)oc2c(Cl)c(O)c(Cl)c(O)c12 [Compound D14],IC50,[1],34 ± 3 µM
"COc1ccc(-c2cc(=O)c3c(O)cc(O)cc3o2)cc1 [Compound D16, Acacetin]",IC50,[1]; [3],~200 µM
COc1ccc(-c2cc(=O)c3c(O)cc(O)cc3o2)cc1OC [Compound D17],inhibition at 200 µM,[1]; [2],< 20%
"C[C@@H]1O[C@@H](OC[C@H]2O[C@@H](Oc3c(-c4ccc(O)c(O)c4)oc4cc(O)cc(O)c4c3=O)[C@H](O)[C@@H](O)[C@@H]2O)[C@H](O)[C@H](O)[C@H]1O [Compound D18, Rutin]",Inhibitory activity against α-glucosidase (in words),[1],low activity
same,inhibition at 200 µM,[1]; [2],< 20%
"O=C1C[C@@H](c2ccc(O)cc2)Oc2cc(O)cc(O)c21 [Compound E1, Naringenin]",inhibition at 200 µM,[1]; [2],45 ± 3%
"O=C1C[C@@H](c2ccc(O)c(O)c2)Oc2cc(O)cc(O)c21 [Compound E2, Eriodictyol]",inhibition at 200 µM,[1]; [2],35 ± 4%
"O=C1c2c(O)cc(O)cc2OC(c2ccc(O)c(O)c2)C1O (stereo not drawn) [Compound E3, Taxifolin]",IC50,[1],~200 µM
same,Ki,yeast α-glucosidase; [4],347 ± 15 µM
same,Type of inhibition,yeast α-glucosidase,Non-competitive
